Read-outs that look alike come from different tables or passages of the source.
What was measured:
[1] = system: HIV-1 infection of TZM-bl cells; assay: HIV-1 infectivity enhancement assay, β-galactosidase luminescence; assay type: cell-based; conditions: for Rel-EFC / Log10 Infection Rel EFC: 1.3 µM peptide; for Rel-EFC: infection relative to EF-C (QCKIKQIINMWQ = 1); for Log10 Infection Rel EFC: log10 of infection relative to EF-C; for Log Infectivity: Log10 infection relative to EF-C, TZM-bl cells, asymmetric std dev errors; for Log10 Infection Rel EF-C: HIV-1 infection of TZM-bl cells; for Abs. Inf.: absolute infection signal, HIV-1 on TZM-bl cells, β-galactosidase luminescence; for Log10 Inf. rel. to EF-C: log10 of HIV-1 infection of TZM-bl cells relative to EF-C (EF-C = 0); for Abs. Infection at 0.26 µM / Abs. Infection at 1.3 µM: mean of n = 3, Figure 4A; for Log10 of Rel to EFC (Feb2021): Log10 of infection relative to EF-C, all peptides of FigS16
[2] = assay type: physicochemical; design: key to Fibril / Fibril Formation / TEM 2cat / Fibril: 1 = fibrils present; 0 non-fibrillar structures; conditions: for Fibril / Fibril Formation: 1 mg/mL, uranyl acetate stain, qualitative
[3] = Turbidity, derived count rate of scattered light; assay type: physicochemical; conditions: for Count Rate: derived count rate of scattered light (turbidity); for Log10 Count Rate: turbidity, derived count rate of scattered light, data of Figure 2D
[4] = Zeta-potential measurement; assay type: physicochemical
Outline: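 Samples: 1 mg/mL in PBS pH 7.4 (from DMSO), 1 d at RT, then diluted in 1 mM KCl immediately before measurement. Triplicates, two independent runs averaged.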

[5] = Fig. S7 panel A (plotted against β-sheet content)
[6] = Log10 of infection rate relative to EF-C, Figure 3A source data
[7] = infection rate relative to EF-C, log10, data of Figure 2D
[8] = infection rate relative to EF-C, log10, source data of Figure 2C
[9] = FigS12 panel A, fibril category by TEM
[10] = TEM, 1 = fibrils present, 0 = non-fibrillar
[11] = TEM, 1 = fibrils present, 0 = non-fibrillar structures
[12] = zeta-potential of peptide, source data of Figure 2C
[13] = zeta-potential of the peptide assemblies, mean, Figure 3A source data
[14] = Fig. S7 panel B (plotted against CR), rounded to two decimals
[15] = category: fibrils present or non-fibrillar

Substance | Rel-EFC [1] | Log10 Infection Rel EFC [1] | Log Infectivity [1, 5] | Log10 Infection Rel EF-C [1, 6] | Log10 Infection Rel EF-C [1, 7] | Log10 Infection Rel EF-C [1, 8] | TEM 2cat ([2]; Fig S10 panel D) | TEM 2cat [2, 9] | Fibril / Fibril Formation ([2]; TEM) | Fibril [2, 10] | Fibril [2, 11] | Count Rate [3] | Log10 Count Rate [3] | Zeta-Potential / mV [4, 12] [mV] | Zeta-Potential / mV [4, 13] [mV] | Log Infectivity [1, 14] | Abs. Inf. [1] | Log10 Inf. rel. to EF-C [1] | Fibril ([2]; Fig S10 panel E) | Zeta-Pot. [4] | further results
CEFEFQF | 0,01 | -2,28 | -2.283 | -2.28 | -2.283 | -2.283 | 1 | 1 | 1 | 1 | 1 | 367.4 | 2.565 | -10.825 | -13.7 |  |  |  |  |  | Fibril ([2]; FigS12 panel B, TEM): 1; Zeta-Pot. ([4]; zeta potential of peptide assemblies): -13.7
CEIEIQI | 0,03 | -1,55 | -1.554 | -1.55 | -1.554 | -1.554 | 1 | 1 | 1 | 1 | 1 | 51.97 | 1.716 | -24.43 | -26.1 | -1.55 | 633.3 | -1.554 | 1 | -26.1 | Fibril ([2]; FigS12 panel B, TEM): 1
CETMYDKILKNLSRSR | 0,02 | -1,72 | -1.716 | -1.72 | -1.716 | -1.716 | 0 | 0 | 0 | 0 | 0 | 1099 | 3.041 | -1.487 | 0.41 | -1.72 | 363.3 | -1.716 | 0 | 0.41 | Fibril ([2]; FigS12 panel B, TEM): 0
CHLHLQL | 0,1 | -1,01 | -1.008 | -1.01 | -1.008 | -1.008 | 0 | 0 | 0 | 0 | 0 | 1155 | 3.062 | -10.37 | -12.27 | -1.01 | 2934 | -1.008 | 0 | -12.27 | Abs. Infection at 0.26 µM ([1]; peptide 0.26 µM): 572.2; Infect 1 0.26 µM ([1]; peptide 0.26 µM, replicate 1, absolute infection signal, Figure 4A): 545.6; Infect 2 0.26 µM ([1]; peptide 0.26 µM, replicate 2, absolute infection signal, Figure 4A): 488.9; Infect 3 0.26 µM ([1]; peptide 0.26 µM, replicate 3, absolute infection signal, Figure 4A): 682.2; Abs. Infection at 1.3 µM ([1]; peptide 1.3 µM): 2934; Infect 1 .3 µM ([1]; peptide 1.3 µM, replicate 1, absolute infection signal, Figure 4A): 3586; Infect 2 1.3µM ([1]; peptide 1.3 µM, replicate 2, absolute infection signal, Figure 4A): 2346; Infect 3 1.3 µM ([1]; peptide 1.3 µM, replicate 3, absolute infection signal, Figure 4A): 2872; Fibril ([2]; FigS12 panel B, TEM): 0
CKFC | 0,01 | -1,96 | -1.959 | -1.96 | -1.959 | -1.959 | 0 | 0 | 0 | 0 | 0 | 235.1 | 2.371 | -2.077 | -19.89 | -1.96 | 240 | -1.959 | 0 | -19.89 | Fibril ([2]; FigS12 panel B, TEM): 0
CKFKFQF | 1,23 | 0,09 | 0.09083 | 0.09 | 0.09083 | 0.09083 | 1 |  | 1 | 1 | 1 | 5303 | 3.725 | 17.4 | 19.73 | 0.09 | 20066.66667 | 0.09083 | 1 | 19.73 | Log10 of Rel to EFC (Feb2021) [1]: 0.09; Abs. Infection at 0.26 µM ([1]; peptide 0.26 µM): 5684; Abs. Infection at 1.3 µM ([1]; peptide 1.3 µM): 20066.66667; TEM 2cat [2, 15]: 1; Zeta pot. / mV ([4]; zeta potential of the peptide assemblies): 19.73 mV
CKFKFQFNM | 1,24 | 0,09 | 0.09417 | 0.09 | 0.09417 | 0.09417 | 1 |  | 1 | 1 | 1 | 2224 | 3.347 | 14.97 | 15.13 | 0.09 | 28183.33333 | 0.09417 | 1 | 15.13 | Log10 of Rel to EFC (Feb2021) [1]: 0.09; TEM 2cat [2, 15]: 1

— PMC10447463, “Data-mining unveils structure–property–activity correlation of viral infectivity enhancing self-assembling peptides” (Nature Communications, 2023)
